The record followed here is patent EP0310322A2, “Use of thromboxane B2 to constrict the pupil and lower intraocular pressure” (ALLERGAN, INC, priority 1987, dated 1989).

Test [1] has as its system pupil. As to the kind of experiment: Pupil diameter after sequential intracameral injections in a sedated rabbit (Example 1). The format is in vivo, New Zealand albino rabbit. The note with it: for Pupil Diameter: 5 min after injection. The procedure:
One New Zealand albino rabbit (2-4Kg) was sedated with an intramuscular injection of a 1:1 mixture of ketamine (Vetalar, Parke-Davis and xylazine (Rompum, Haver-Lockhart). The pupil diameters of both eyes were measured under standard room lighting with an optistick and recorded. The right eye was injected intracamerally with 100ng of thromboxane B₂ (12ul). The contralateral eye was injected with an equal volume of the vehicle solution, 0.05% BSA (Bovine Serum Albumin) in 0.01N CH₃COOH. Hamilton syringes with 30 gauge needles were used for the injection. Five minutes later the pupil diameters of both eyes were measured and recorded. Sequential injections of thromboxane B₂ (Sigma) were made into the right eye and an equal volume of vehicle into the left. Five minutes after each injection the pupil diameters were measured and recorded. A total of three injections of thromboxane B₂ (TXB2) were administered to the right eye; 100ng, 1ug, 10ug (12ul). After the last injection of TXB2, carbachol, 200ng (lul) was administered to both eyes, intracamerally, and the pupil diameters were measured after five minutes.

The subject of test [2] is pupil. As to the kind of experiment: Pupil diameter after intracameral injection in flurbiprofen-pretreated sedated rabbits (Example 2). The format is in vivo, New Zealand albino rabbits. The method, then: Seven New Zealand albino rabbits were treated, topically, with 0.03% flurbiprofen (Ocufen, Allergan) every 1/2 hour for two hours to inhibit endogenous synthesis of thromboxane. Following flurbiprofen treatment the rabbits were sedated with a 1:1 mixture of Ketamine and Rompum and the pupil diameters of both eyes were measured and recorded as before. 50ug (6ul) of TXB2 was injected intracamerally into the right eye of each rabbit and an equal volume of vehicle was administered to the left eyes. The pupil diameters were measured five minutes following the injections. This does of TXB2 was chosen because it is 1000 times the concentration of TXB2 found in clotting blood in rabbits (Ali and Mohammed, 1986). Carbachol 200ng (1ul) was injected into both eyes and the pupil diameters recorded after a five minute and a ten minute duration.
Refer to Figure 1. Next, both eyes were injected with 200ng (1ul) of carbachol.

The test system of test [3] is pupil. As to the kind of experiment: Pupil diameter after intracameral injection in flurbiprofen-pretreated sedated cats (Example 3). The note with it: cat. The format is in vivo, domestic cats. The procedure:
Fifteen male and female domestic cats were treated topically with 0.03% flurbiprofen (in both eyes) every 1/2 hours for two hours to inhibit endogenous thromboxane synthesis. The cats were sedated with 0.5 to 0.75ml of Rompum (20mg/ml) by intramuscular injection. […] The pupil diameters of both eyes were measured with an optistick and recorded. The right eye of each cat was injected intracamerally with one concentration of thromboxane B₂ ranging from a high of 500ng (10ul) to a low of 10ng (10ul). The contralateral eye was injected with an equal volume of the vehicle: saline. The pupil diameters were measured five and ten minutes after the injections. The cats were allowed to regain consciousness while in the laboratory.
Increasing concentrations of TXB2 led to greater constriction of the pupil (miosis). Maximum constriction of the pupil occurred at a dose of 500ng. The ED₅₀ was 70ng. Refer to Figure 2. […] The filled circles are the mean pupil diameters of the TXB2 treated eyes. The pupil diameters of the vehicle treated eyes are shown by the open circles.

Test [4] deals with pupil. Description: Pupil diameter after topical drops in awake monkeys (Example 4). The format is in vivo, Cebus apella monkeys. As to conditions: Cebus monkeys, total dose per eye 2.5 micrograms to 1 mg. The procedure: Eight Cebus apella monkeys were treated topically with thromboxane B₂ in one eye and normal saline in the contralateral eye. The monkeys were awake and alert and seated in primate chairs for the duration of the experiment. The thromboxane B₂ concentrations used were 0.625ug, 1.25ug, 6.25ug, 12.5ug, 62.5ug, 125.0ug and 250ug per drop. A 50ul drop was administered following the baseline pupil diameter measurement. Three more drops were given at 15 minute intervals. Total dose per eye after 4 drops ranged between 2.5 micrograms and 1 mg. Pupil diameter was measured just before each administration. The last measurement was taken at 60 minutes.
In the eight Cebus monkeys with TXB2-treated eyes, the pupil diameters decreased 0.75 to […] at 30 minutes.
The range of doses used probably represented the upper end of the dose-response curve. The 0.75 to […] pupil constriction represents a significant response in the small Cebus eye.

On to `C[N+](C)(C)CCOC(N)=O` [Carbachol, carbachol, reference compound], for which the pupil constriction entry in the test with pupil [1] (rabbit #8394, carbachol 200ng (1ul) intracameral, both eyes) is listed as “constricted an expected amount”. Moreover, the Pupil Diameter in the test with pupil [1] (rabbit #8394, eye OD (previously TXB2 treated), carbachol 200ng intracameral) was 3 mm; in the test on pupil [1] (rabbit #8394, eye OS (previously vehicle treated), carbachol 200ng intracameral), 1.5 mm; in the test on pupil [2] (carbachol 200ng (1ul) injected into both eyes after TXB2 or vehicle, measured after 5 and 10 min), “decreased significantly and to the same degree in both eyes”.

As to `CCCCC[C@H](O)/C=C/[C@H]1OC(O)C[C@H](O)[C@@H]1C/C=C\CCCC(=O)O` (some centres unmarked) [TXB2, thromboxane B₂], the Pupil Diameter in the test on pupil [1] (rabbit #8394, eye OD, TXB2 100ng intracameral (12ul), baseline 6.0) is 5 mm; in the test with pupil [1] (rabbit #8394, eye OD, second sequential TXB2 dose 1ug intracameral), 5 mm; with pupil [1] (rabbit #8394, eye OD, third sequential TXB2 dose 10ug intracameral), 5.5 mm. For the same compound, the “changes in pupil diameter” value in the test with pupil [1] (rabbit #8394, three sequential intracameral doses 100ng, 1ug and 10ug) is “no significant changes in pupil diameter”. Moreover, in the test with pupil [2] (rabbits, topical 0.03% flurbiprofen pretreatment, TXB2 50ug intracameral, then carbachol 200ng), the “ability of the pupillary sphincter to contract when stimulated by carbachol” value was “nor TXB2 administration affected the ability of the pupillary sphincter to contract”. In the test with pupil [2] (seven rabbits, 0.03% flurbiprofen pretreatment, 50ug (6ul) intracameral, 5 min after injection), the “pupil diameters versus vehicle eyes” value is “no different from those eyes receiving vehicle”. Besides, the “dose at which maximum constriction of the pupil occurred” value with pupil [3] (intracameral, doses 10ng to 500ng (10ul)) is given as 500 ng. Besides, the “effect on pupil diameter” value with pupil [3] (intracameral, doses 10ng to 500ng, measured 5 and 10 min after injection) is listed as “dose-related effect on pupil diameter”. The ED₅₀ in the test on pupil [3] (pupil constriction (miosis), intracameral doses 10ng to 500ng (10ul), flurbiprofen pretreatment) stood at 70 ng. For the same compound, in the test with pupil [4], the “dose-response relationship of pupil constriction” value is reported as “no dose-response relationship was observed”.
